# PMC7073916, “Potential Tools for Eradicating HIV Reservoirs in the Brain: Development of Trojan Horse Prodrugs for the Inhibition of P-Glycoprotein with Anti-HIV-1 Activity” (Journal of Medicinal Chemistry, 2019)
# Read-outs that look alike come from different tables or passages of the source.
# What was measured:
# P-gp [1] = settings: cited from earlier work
# in vitro = format: cell-based; settings: human
# Protocol: An MTT assay was used to determine the cell toxicity of Aba-S2-NFV1 and Aba-S2-DRV8 in the 12D7-MDR cell lines after 24 h.[44]
# The viability of 12D7-MDR cells in the presence of a TH heterodimer (Aba-S2-NFV1 or Aba-S2-DRV8) was measured using the standard MTT assay.[44] 20 000 12D7-MDR cells were plated in 96-well plate in 100 μL of cell medium. After 12 h, TH heterodimer in medium was added to each well to give a final concentration of 5, 10, and 20 μM (1% DMSO). After 24 h 20 μL of MTT in PBS (5 mg/mL) was added to all the wells and incubated for 2.5 h. The 96-well plates were centrifuged at 300g for 7 min, followed by careful removal of supernatant. 100 μL of DMSO was added to dissolve the formazan. The absorbance of the DMSO solution was read using a plate reader at 590 nm. Cell viability was reported as the ratio of absorbance of cells treated with TH heterodimer relative to cells treated with DMSO.
# [2] = Stability of prodrugs in PBS and cell culture media; format: physicochemical; settings: 37 °C
# Protocol: (§1) To investigate if Aba-S2-NFV1 and Aba-S2-DRV8 are effective against HIV-1 in cells, an in vitro HIV-1 titer assay was performed using the 12D7 cell line. 12D7 cells were infected with HIV-1LAI, and anti-HIV-1 activity was measured by monitoring p24 protein levels as previously described.[45],[46] First the stability of the prodrugs was monitored in PBS and cell culture media using UPLC–MS. […] Therefore, for the cell-based anti-HIV-1 experiments, the medium, with drugs, was changed every 3 days. […] (Figure 2). […] Thus, this difference in chemical connectivity leads to a difference in monomer release that may be responsible for the differences in anti-HIV-1 potency.
# The cell media stability studies for the TH heterodimers (Aba-S2-NFV1 or Aba-S2-DRV8) were carried out following a previously published protocol with some modifications.[32] Heterodimers (100 μM) were incubated at 37 °C in the cell medium used for 12D7 cells (complete RPMI 1640 medium with 50 units/mL of penicillin and 50 μg/mL streptomycin, 5 mM of L-glutamine, and 10% FBS) with 1% DMSO. Every 24 h ice-cold acetonitrile with 4-methoxybenzyl alcohol (1.0 mM) was added to an aliquot of the reaction mixture (1:1). The resultant solution was vortexed for 1 min, sonicated for 10 min, and centrifuged twice at 10 000g for 10 min each. The supernatant was stored at −80 °C. All samples were analyzed using a C8 analytical column (Phenomenex, USA) on RP-HPLC with eluent consisting of solvent A (water and 0.05% TFA) and solvent B (acetonitrile and 0.05% TFA). A gradient of 15–75% solvent B over 30 min with a flow rate of 1.2 mL/min and UV detection at 254 nm was used. The assays were performed in duplicate.
# P-gp [3] = target: T1, P-gp (Homo sapiens, UniProt P08183); assay: P-gp substrate accumulation assay (flow cytometry) in 12D7-MDR cells; format: cell-based; set-up: host or cells: 12D7-MDR cells (CD4+ T lymphocytes, kept under vincristine); settings: for IC50: 12D7-MDR cells, 30 min, 1% DMSO
# T1 sequence (P08183 whole entry): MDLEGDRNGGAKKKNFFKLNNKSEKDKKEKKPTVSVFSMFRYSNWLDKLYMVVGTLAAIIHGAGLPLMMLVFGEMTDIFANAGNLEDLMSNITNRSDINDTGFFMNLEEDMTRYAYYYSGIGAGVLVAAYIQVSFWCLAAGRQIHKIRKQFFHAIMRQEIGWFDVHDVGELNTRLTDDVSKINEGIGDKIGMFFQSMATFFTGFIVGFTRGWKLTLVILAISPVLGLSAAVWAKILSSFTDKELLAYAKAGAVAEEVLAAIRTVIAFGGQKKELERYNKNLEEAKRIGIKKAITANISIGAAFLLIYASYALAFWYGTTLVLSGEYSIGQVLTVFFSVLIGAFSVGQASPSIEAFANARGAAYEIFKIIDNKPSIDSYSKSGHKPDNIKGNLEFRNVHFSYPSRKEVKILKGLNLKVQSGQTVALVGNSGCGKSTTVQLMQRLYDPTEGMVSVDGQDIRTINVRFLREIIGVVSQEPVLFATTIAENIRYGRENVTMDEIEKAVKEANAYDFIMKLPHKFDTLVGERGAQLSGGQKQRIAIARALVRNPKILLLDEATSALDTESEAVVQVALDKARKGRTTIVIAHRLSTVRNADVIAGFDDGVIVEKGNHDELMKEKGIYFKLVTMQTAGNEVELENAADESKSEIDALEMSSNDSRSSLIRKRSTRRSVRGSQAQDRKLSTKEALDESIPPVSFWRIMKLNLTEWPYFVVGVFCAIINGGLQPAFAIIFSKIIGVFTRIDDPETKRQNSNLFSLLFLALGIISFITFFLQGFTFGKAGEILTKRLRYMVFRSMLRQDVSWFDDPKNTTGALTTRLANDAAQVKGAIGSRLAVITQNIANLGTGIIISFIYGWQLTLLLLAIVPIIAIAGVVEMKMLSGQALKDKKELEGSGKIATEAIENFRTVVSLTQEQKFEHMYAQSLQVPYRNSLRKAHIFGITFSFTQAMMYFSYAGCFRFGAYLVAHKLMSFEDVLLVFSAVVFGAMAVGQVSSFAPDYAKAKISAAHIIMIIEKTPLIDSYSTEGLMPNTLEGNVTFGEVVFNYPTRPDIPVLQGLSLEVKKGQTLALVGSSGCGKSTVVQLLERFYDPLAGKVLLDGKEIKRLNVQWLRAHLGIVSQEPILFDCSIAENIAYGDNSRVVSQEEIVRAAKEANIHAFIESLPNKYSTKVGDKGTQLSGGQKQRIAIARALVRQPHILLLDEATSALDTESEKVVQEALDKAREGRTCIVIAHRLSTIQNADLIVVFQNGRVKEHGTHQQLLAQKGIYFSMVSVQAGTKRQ
# Source text: (§2) One of the goals of the designed TH heterodimers is to inhibit P-gp-mediated efflux. A substrate accumulation assay was used to evaluate the potency of Aba-S2-NFV1 and Aba-S2-DRV8 as P-gp inhibitors using the P-gp substrates calcein-AM and NBD-Aba.[38],[39] Two cell lines were used to monitor the accumulation of these fluorescent P-gp substrates: 12D7-MDR cells which are CD4+ T lymphocytes with overexpression of P-gp,[40] and hCMEC/D3 cells as an in vitro BBB model cell line.[41] hCMEC/D3 cells are an immortalized human brain capillary endothelial cell line that expresses endogenous levels of P-gp.[42],[43] Inhibition of P-gp efflux was measured by monitoring the increase in cellular fluorescence with added heterodimer by flow cytometry.
# (§3) The growth of cells was maintained at 37 °C in 5% CO2. hCMEC/D3 cells were cultured according to literature protocols with minor modifications.[41]
# (§4) Flow cytometry was used to estimate P-gp inhibition using a substrate accumulation assay as described previously with some minor changes.[38] […] The cells were harvested by centrifugation at 300g at 4 °C for 7 min. The supernatant was carefully removed, and 400 μL of cold, sterile PBS was added to the cell pellet. […] The mean fluorescence value for each concentration corresponded to 10 000 cells. Each sample was run in duplicate, and all the experiments were run in duplicates on two different days. The average fluorescence accumulated in the cells for samples was used to plot the mean fluorescence vs concentration, and the IC50 values were estimated using GraphPad Prism.
# P-gp [4] = target: T1, P-gp; assay: P-gp substrate accumulation assay (flow cytometry) in hCMEC/D3 cells; format: cell-based
# Source text: as §2, §3, §4
# HIV-1LAI = assay: HIV-1 cell inhibition assay (p24 ELISA) in infected 12D7 cells; format: cell-based; settings: HIV-1LAI infected 12D7 cells; 6 days; medium with drug changed after 3 days; Figure 2
# Protocol: as §1
# 12D7 cells were grown in the identical medium for the cell culture medium stability studies. The cells in log-phase were pelleted and resuspended at 1 million cells per mL. 500 TCID50 HIV-1LAI was used to infect cells for 4 h using a known procedure.[45] These infected cells were plated at a density of 75 000 cells per mL in 48-well plates after three washes with the medium. Different concentrations of the compound of interest were added keeping the DMSO concentration at 0.05%. […] On the sixth day, the supernatant was analyzed using ELISA to quantify the amount of HIV-1 p24 (gag) protein generated in each sample.[46] […]
# [5] = Reversion of TH heterodimers into monomers in a reducing environment (DTT or GSH), UPLC-MS; format: physicochemical; settings: ratio of t1/2 values (DTT)
# Protocol: The breakdown of the TH heterodimers with DTT and glutathione (GSH) and the release of monomers were monitored using UPLC–MS at various time points. The reduction of the heterodimers to free thiols occurs rapidly, with full reduction observed within 1 h. Upon appearance of free thiols, the subsequent rearrangement led to the generation of the component monomeric drugs. […] This significant difference in monomer release is likely due to the differences in the chemical connectivity of the monomers. NFV, as described above, is connected to the tether via a phenolic moiety, whereas DRV is linked by a secondary alcohol. The better leaving group ability of the phenol versus the secondary alcohol likely leads to the observed difference in monomer regeneration.
# Stability studies with DTT and GSH were adapted from a previously published protocol with some changes.[32] […] When monitoring NFV and DRV release, an aliquot of the reaction mixture was taken at different time points and directly analyzed by UPLC–MS. […] The time points were analyzed using RP-UPLC with a C18 column consisting of solvent A (water and 0.1% formic acid) and solvent B (acetonitrile and 0.1% formic acid), a gradient of 5–95% of solvent B over 10 min, and a flow rate of 0.5 mL/min. […]
# [6] = NBD-Aba 5 μM, read-out: IC50, inhibition of P-gp mediated efflux of NBD-Aba
# [7] = calcein-AM 0.25 μM, read-out: IC50, inhibition of P-gp mediated efflux of calcein-AM
# [8] = NBD-Aba 5 μM, 30 min, 1% DMSO, read-out: IC50, inhibition of P-gp mediated efflux of NBD-Aba
# [9] = calcein-AM 0.25 μM, 30 min, 1% DMSO, read-out: IC50, inhibition of P-gp mediated efflux of calcein-AM
SMILES,"viability at 24 h, 20 µM (in vitro) [%]",IC50 (P-gp [3]; [6]) [nM],IC50 (P-gp [3]; [7]) [nM],IC50 (P-gp [4]; [8]) [nM],IC50 (P-gp [4]; [9]) [nM],anti-HIV-1 activity (HIV-1 p24 levels) (HIV-1LAI),further results
"Nc1nc(NC2CC2)c2ncn([C@H]3C=C[C@@H](CO)C3)c2n1 [Aba, abacavir]",–,–,–,–,–,–,increase of brain accumulation in P-gp null mice as compared to wild-type mice (P-gp [1]; P-gp null mice vs wild-type mice): 20 fold
"CC(C)CN(C[C@@H](OC(=O)CCCSSCCCC(=O)OC[C@@H]1C=C[C@H](n2cnc3c(NC4CC4)nc(N)nc32)C1)[C@H](Cc1ccccc1)NC(=O)O[C@H]1CO[C@H]2OCC[C@H]21)S(=O)(=O)c1ccc(N)cc1 [Aba-S2-DRV8, abacavir-S2-darunavir-8]",70,510 ± 80,500 ± 40,90 ± 20,80 ± 20,less potent than the 1:1 mixture of Aba and DRV,"stability of prodrug beyond 3 days [2]: decomposition observed after day 4; prodrug intact ([2]; after 3 days): greater than 95%; IC50 (P-gp [4]; calcein-AM and NBD-Aba substrates, read-out: IC50 values, inhibition of P-gp efflux): 80 to 90 nM"
"Cc1c(OC(=O)CCCSSCCCC(=O)OC[C@@H]2C=C[C@H](n3cnc4c(NC5CC5)nc(N)nc43)C2)cccc1C(=O)N[C@@H](CSc1ccccc1)[C@H](O)CN1C[C@H]2CCCC[C@H]2C[C@H]1C(=O)NC(C)(C)C [Aba-S2-NFV1, abacavir-S2-nelfinavir-1]",> 95,650 ± 90,770 ± 50,410 ± 60,590 ± 70,superior potency as compared to Aba-S2-DRV8,"prodrug intact ([2]; after 1 week): greater than 95%; fold faster release of NFV from Aba-S2-NFV1 than DRV release from Aba-S2-DRV8 [5]: 18 fold; fold increase in inhibition of P-gp as compared to the monomeric PI (NFV or DRV) (P-gp [3]; ratio of IC50 values of Table 1, 12D7-MDR and hCMEC/D3 cells, calcein-AM and NBD-Aba): 3- to 12 fold"
"CC(C)CN(C[C@@H](O)[C@H](Cc1ccccc1)NC(=O)O[C@H]1CO[C@H]2OCC[C@H]21)S(=O)(=O)c1ccc(N)cc1 [DRV, darunavir, reference compound]",–,60000 ± 9400,33200 ± 6500,15400 ± 3200,6600 ± 1900,–,–
"Cc1c(O)cccc1C(=O)N[C@@H](CSc1ccccc1)[C@H](O)CN1C[C@H]2CCCC[C@H]2C[C@H]1C(=O)NC(C)(C)C [NFV, nelfinavir]",–,–,–,–,–,–,"increase of brain accumulation in P-gp null mice as compared to wild-type mice (P-gp [1]; mouse, not told): 36 fold"
